Like-named read-outs stand apart in the source and are kept apart here.
Key:
[1] = Toxicity in SCID mice without tumors; format: in vivo; conditions: 180 mg/kd/d
Procedure: Four SCID mice without tumors were given TH-1177 at a dose of 180 mg/kd/d.

PC3 cells = assay: Survival of SCID mice inoculated with PC3 cells; format: in vivo
Procedure: Animal Studies: All protocols were approved by the Animal Care Committee of the University of Virginia. SCID mice were housed in a barrier isolation facility of the University of Virginia Department of Comparative Medicine and all personnel observed sterile techniques when entering the facility and handling animals. TH-1177 was dissolved in ethanol and diluted 10-fold in sterile phosphate buffered saline (PBS) immediately prior to each day's injection. Injection volumes of 0.5 ml per animal were used. Vehicle consisted of PBS diluted ethanol. PC3 cells for injection were prepared by washing in sterile PBS three times prior to suspension to 2×10^6 per ml. Each animal received a daily IP injection of vehicle or drug beginning on day 1.
Statistical methods: In vivo survival data were analyzed with Prism 2.01 (GraphPad Software, San Diego, Calif.). The results of the Kaplan-Meier analysis are presented as one-tailed probabilities because there was no reasonable expectation that drug treatment would cause the mice to succumb more rapidly to the implanted cancer than would control animals.
TH-1177 slowed prostate cancer progression in vivo. […] One day later, daily IP injections of TH-1177 or vehicle alone were begun. TH1177 was administered at doses or either 3 mg/kg or 10 mg/kg. […]

Ca2+ entry in PC3 cells = assay: Measurement of intracellular Ca2+ concentration (Ca2+ entry), PC3 cells; format: cell-based, human
Procedure: Cells were incubated in growth media containing 1 μM of the acetoxy-methyl ester of the Ca^2+-sensitive fluorescent dye indo-1 (indo-1/AM, Molecular Probes, Eugene, Oreg.) for 1 hour at 37° C. Cells were washed three times in buffer A (10 mM HEPES, pH 7.4, 1 mM MgCl2, 3 mM KCl, 1 mM CaCl2, 140 mM NaCl, 0.1% glucose, 1% fetal bovine serum) and suspended to a final concentration of 10^6/ml. Prior to stimulation, cells were warmed to 37° C. Prior to stimulation, cells were also incubated with drug, calcium channel antagonists and the IC50 values were determined. Changes in [Ca^2+] were monitored in an SLM 8100C spectrofluorometer (SLM/Aminco, Urbana, Ill.) using previously published methods, Haverstick, et al. (1998) Cell Calcium, 23: 361-368; Densmore, et al. (1996) Am. J. Physiol., 271:C1494-1503, incorporated herein by reference.
Calcium influx into the cell is suitably stimulated using either (1) a physiological ligand or (2) an endoplasmic reticulum (ER) ATPase inhibitor. Preferably, a physiological ligand is used to stimulate calcium influx into the cell.
Ir. the experiment depicted in FIG. 4A, TH-1177 was added before the cells were stimulated with ATP. […] By 70 s after ATP addition, release of Ca^2+ from the internal storage pool was largely over (for example, see FIG. 5 below) and the maintenance of elevations of [Ca^2+]i over baseline was dependent on Ca entry from the extracellular compartment. […] Therefore, TH-1177 interacts with the Ca^2+ influx pathway.
The efficiency of TH-1177 at blocking Ca^2+ entry was assessed by comparison to the effect of chelation of extracellular Ca^2+ with EGTA, which was considered 100% inhibition of Ca^2+ entry.
The data presented above provide that TH-1177 inhibited the stimulated increase in [Ca^2+]i by blockage of Ca^2+ entry. […] This increase represented release of Ca^2+ from the internal storage pool. Addition of TH-1177 had no effect on the size of this change in [Ca^2+]i. […]

[2] = system: HT-29 (colon cancer cell); assay: Measurement of cellular proliferation, HT-29 cells; format: cell-based; conditions: HT-29, 48 hours
Procedure: (§1) Measurement of cellular proliferation: LNCaP cells at 2.5×10^4/well or PC3 cells at 5×10^4/well, both in a final volume of 100 μl, were plated in triplicate in standard flat bottom 96 well tissue culture plates in the presence of drug or vehicle (DMSO). Unless otherwise indicated, cells were grown for 48 hours at 37° C. in a CO2 incubator. Relative cell growth was determined with the CellTiter 96 aqueous cell proliferation assay (Promega, Madison, Wis.) as described by the manufacturer using an automated plate reader. Results were calculated in a blinded fashion and are means of triplicate determinations.
(§2) For the 48 hour proliferation, cells were cultured with calcium channel antagonists or without calcium channel antagonists. The IC50 values of the calcium channel antagonists were determined.
(§3) Using the measurement cell proliferation assay described hereinabove, the cell lines Jurkat, LNCap (prostate cancer cell), PC-31 (prostate cancer cell), DU145 (prostate cancer cell), MDA-468 (breast cancer cell), MDA-36 (Breast cancer cell), MCF-7 (breast cancer cell), MIA PaCa-2 (pancreatic cancer cell), Hep G2 (liver cancer cell), A549 (non-small cell lung cancer cells), NCI H460 (non-small cell lung cancer cells), HT-29 (colon cancer cell), HCT-116 (colon cancer cell) and SK OV-3 (ovarian cancer cell) were cultured in the presence of TH-1177, TH-1205, TH-1201, TH-2109, TH-2029, TH-2043, TN-2085 and TH-2279.

[3] = system: PC3 prostate cancer cells; assay: Measurement of cellular proliferation, PC3 cells; format: cell-based, human
Procedure: as §1, §2, §3

[4] = system: LNCaP prostate cancer cells; assay: Measurement of cellular proliferation, LNCaP cells; format: cell-based, human
Procedure: as §1, §2, §3

[5] = system: MDA-361 cells (breast cancer cell); assay: Measurement of cellular proliferation, MDA-361 cells; format: cell-based; conditions: MDA-361, 48 hours; read-out: PROLIFERATION IC50 MDA-361
Procedure: as §1, §2, §3

[6] = system: DU145 (prostate cancer cell); assay: Measurement of cellular proliferation, DU145 cells; format: cell-based; conditions: DU 145, 48 hours
Procedure: as §1, §2, §3

## COc1ccc(CCN2CCC[C@H]2COC(c2ccccc2)c2ccc(Cl)cc2)cc1 (stereo partly drawn) [TH-1177]
[1]
  Gross findings at necropsy: no gross abnormalities
  Histological examination of kidney, adrenal gland, heart and liver: within normal limits
PC3 cells; 3 mg/kg/d daily IP, p=0.047
  Life span increase: 34%
PC3 cells; 10 mg/kg/d daily IP, p=0.0044
  Life span increase: 38%
Ca2+ entry in PC3 cells; EGTA chelation of extracellular Ca2+ considered 100% inhibition, read-out: IC50 for blocking Ca2+ entry, PC3 cells
  IC50: 16 µM
Ca2+ entry in PC3 cells; PC3, 1 mM ATP, drug added before
  Effect on increase in [Ca2+]i stimulated by ATP: concentration dependent inhibition
Ca2+ entry in PC3 cells; PC3, EGTA in medium, 1 mM ATP
  Effect on release of Ca2+ from the internal storage pool: no effect
[2]
  IC50: ~100 µM
[3]; FIG. 6B, 48 hours, read-out: IC50 for inhibition of PC3 proliferation
  IC50: 14 µM
[3]; PC-3, 48 hours, read-out: PROLIFERATION IC50 PC-3
  IC50: 15 µM
[4]; FIG. 6A, 48 hours, read-out: IC50 for inhibition of LNCaP proliferation
  IC50: 4 µM
[4]; LNCaP, 1 μM or 3 μM, FIG. 7, growth resumed after removal
  Cell growth in presence of compound: growth was stopped
[4]; LNCaP, FIG. 8
  Effect of prior treatment on response to second exposure: no effect
[5]
  IC50: 26 µM
[6]
  IC50: 19 µM

From patent US6946475B1, “Anticancer calcium channel blockers” (University of Virginia Patent Foundation, priority 1999, dated 2005)
